Experimental data as given in the METLIN SMRT retention time set (Domingo-Almenara et al. 2019).

Experiment: gradient 5% acetonitrile 3 min, to 50% in 2 min, to 85% in 15 min, held 3 min, 100 µL/min
Conditions: column: Zorbax Extend-C18 2.1 x 50 mm; eluents: water / acetonitrile, 0.1% formic acid
In short: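 Using water and acetonitrile that each contained 0.1% formic acid, mixtures of ~100 pure standards were separated at 100 μL/min on a Zorbax Extend-C18 column (2.1 × 50 mm, 1.8 μm). The HPLC fed a quadrupole time-of-flight mass spectrometer working in positive and negative ionization mode, with dead and dwell volumes of 40 μL and 900 μL. Data were acquired over 3 months. Retention time was read from computationally picked adduct peaks after manual inspection of each.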

SMILES | RP-LC retention time [s]
COc1cn2c(cc1=O)C(=O)N(CCNC(=O)c1ccc(Br)o1)CC2 | 556
CC(=O)c1cccc(NC(=O)COc2ccc(C(C)(C)C)cc2)c1 | 1010
O=C(c1cnccn1)N1CCc2nn(CC3CC3)c(=O)n2CC1 | 598
Cc1cccc(Nc2ccc(N3CCN(C(=O)Cc4c[nH]c5ccccc45)CC3)nn2)n1 | 574
Cc1cc(=O)n(CC(=O)Nc2ccc(C(C)C)cc2)c(N2CCOCC2)n1 | 774
O=C(O)c1cc(=O)c2cc(Cl)ccc2[nH]1 | 692
CCc1ccc(CNC(=O)c2cc3n(n2)CC(C)(C(=O)NC2CCCC2)N(CC)C3=O)cc1 (configuration not stated) | 865
C=CCCC1(C2=CCCCC2)C(=O)NC(=O)NC1=O | 804
CCc1ccc2c(c1)c(=O)c(C(=O)c1ccccc1)cn2CC(=O)Nc1cccc(Cl)c1 | 892
COC(=O)c1c(C)[nH]c(C(=O)N2CCCC(C(=O)NCc3ccc(OC)cc3OC)C2)c1C (configuration not stated) | 755
CCOc1ccc(C(C)NC(=O)C2CCCN(c3cnc4nccnc4c3)C2)cc1 (configuration not stated) | 712
O=C(Nc1nccnc1C(=O)NCCCN1CCOCC1)c1ccccc1 | 551
COc1ncc(C(=O)NCc2cccc(Br)c2)cn1 | 779
Cc1nc2c(sc3nc(-c4ccccc4)ccc32)c(=O)n1CC(=O)NCc1ccccc1 | 972
CC(C)Cn1cc(CCNC(=O)C2CCCCC2)c2cccnc21 | 817
O=c1c2cc(-c3ccccc3)nn2ccn1Cc1noc(CN2CCOCC2)n1 | 681
Cc1noc(C)c1-c1ccc(S(=O)(=O)NCc2ccc(Cl)cc2)cc1 | 969
O=c1c2ccccc2n(Cc2nc(-c3ccccc3)no2)c(=O)n1CC1CCCO1 (configuration not stated) | 978
Cc1ccc(-c2nnc(-c3nn(C)c4c3CN(S(=O)(=O)c3ccc(Cl)s3)CC4)o2)cc1 | 1060
COc1ccc(OCc2nc3ccc(C)cc3[nH]2)cc1 | 578
COc1ccccc1-c1noc(Cn2ncn3nc(-c4ccc(F)cc4)cc3c2=O)n1 | 996
CCOc1ccc(N2C=C(C(=O)OC)S(=O)(=O)c3ccc(Br)cc32)cc1 | 1040

SMILES | RP-LC retention time [s]
CCn1ccc2c(cc(C(=O)NCc3ccc4c(c3)OCO4)n2C)c1=O | 676
Nc1ccc2nc3ccc(=O)cc-3n(-c3ccccc3)c2c1 | 614
CS(=O)(=O)N1C[C@H]2CCN(Cc3ccc(F)cc3F)C[C@H]21 | 584
CCNC(=O)[C@H]1O[C@@H](n2cnc3c(N)ncnc32)C(O)[C@H]1O (some centres not stated) | 555
Cc1cc(-c2nnc(-c3ccc(F)cc3)o2)c(C)n1CC(=O)Nc1ccc(F)cc1 | 964
CCOC(=O)c1cccc(N2C=C(C#N)S(=O)(=O)c3ccccc32)c1 | 898
O=C(Cn1cnc2onc(-c3ccc(Cl)cc3)c2c1=O)N1CCCc2ccccc21 | 1100
CN1CCN(CCNC(=O)C2CCN(Cc3cn(C)c4ccc(Cl)cc34)CC2)CC1 | 570
Cc1ccc(-c2cc3c4nn(CC(=O)N5CCCC5)c(=O)n4ccn3n2)cc1C | 842
COc1ccc(N2CC(c3nc(-c4ccc(C(F)(F)F)cc4)no3)CC2=O)cc1 (configuration not stated) | 1040
COc1ccc(-c2nnc(-c3ccc(OC)c(S(=O)(=O)N4CCOCC4)c3)o2)cc1OC | 768
O=C(C1CCCN(c2ncnc3c2nc2n3CCCCC2)C1)N1CCC(N2CCCCC2)CC1 (configuration not stated) | 590
CCOC(=O)c1ccc(N2C=C(C(=O)OC)S(=O)(=O)c3ccccc32)cc1 | 893
COCc1nncn1C1CCN(S(=O)(=O)c2ccccc2Cl)CC1 | 697
O=C(Nc1cccc(Cl)c1)c1c(O)c2cccnc2n(-c2cccc(F)c2)c1=O | 1360
COc1ccc(CNC(=O)Cc2csc3nc(-c4cccc(Br)c4)cn23)cc1 | 886
CCCn1c(=O)c(C)nc2cc(-c3noc(-c4cc(OC)c(OC)c(OC)c4)n3)ccc21 | 1110
CCc1ccc(-n2ncc3c(=O)n(Cc4nc(-c5ccccc5OC)no4)cnc32)cc1 | 1040
Cc1ccc(CNC(=O)COc2ccccc2-c2nnc(-c3ccccc3)o2)o1 | 1040
COc1ccccc1-c1nnc(NC(=O)c2ccc3c(c2)CCCC3)o1 | 822
O=C(NCCC1=CCCCC1)C1CCN(c2ncccc2S(=O)(=O)N2CCCCC2)CC1 | 1080
CNCc1ccc(-c2ccc(Cl)cc2Cl)o1 | 658

SMILES | RP-LC retention time [s]
CCc1nn(CC(=O)N2CCN(c3ccccn3)CC2)c(=O)c2cc3ccccc3n12 | 607
Cc1cc(C(F)F)n2nc(C(=O)N3CCCC3c3ccc(F)cc3)nc2n1 (configuration not stated) | 808
COCCCNC(=O)C1CCC(=O)N(c2cc(OC)c(OC)c(OC)c2)C1c1ccc(OC)cc1 (configuration not stated) | 572
Cc1nn(-c2ccc(N3CCCCC3)nn2)c(C)c1CCC(=O)NCc1ccco1 | 667
Cc1ncc2c(n1)C[C@@H]1CC[C@H]2N1C(=O)NCCc1ccccc1 | 647
COc1ccc(CCNc2nc(N3CCc4cc(OC)c(OC)cc4C3)c3cc(OC)c(OC)cc3n2)cc1OC | 833
CSc1ncc(C(=O)N2CCN(c3ccccn3)CC2)c(-c2ccccc2)n1 | 837
Cc1cccc(NC(=O)Cn2c(-c3cnccn3)nc(C)c(C)c2=O)c1C | 743
Cc1ccc(-c2nnc(N3CCC(C(=O)NC(C)c4ccc(F)cc4)CC3)o2)cc1 (configuration not stated) | 892
CCN(C(=O)C1CCCN1S(=O)(=O)c1cc2c(cc1C)NC(=O)C(C)O2)c1ccccc1 (configuration not stated) | 814
Cn1cc(S(=O)(=O)N2CCC(C(=O)Nc3nccs3)CC2)cc1C(=O)N1CCCC1 | 662
CCn1cc(-c2nc(C)c(C(=O)Nc3ccccc3C)s2)c2cccnc21 | 980
CC(C)(C)c1ccc(S(=O)(=O)c2nnn(-c3ccc4c(c3)OCCO4)c2N)cc1 | 944
CC(C)N1CCn2c(nc3cc(C(=O)NCc4ccc(Cl)cc4)ccc32)C1=O | 741
CCc1ccc(-c2noc(Cn3c(=O)n(-c4ccc(OC)cc4)c(=O)c4sccc43)n2)cc1 | 1150
O=C(Nc1ccc2c(c1)OCCO2)C1CCCN(c2ccnc(-c3ccc(F)cc3)n2)C1 (configuration not stated) | 691
COc1ccc(-c2noc(-c3ccc(=O)n(Cc4c(F)cccc4Cl)c3)n2)cc1 | 1010
CCc1ccc(Nc2cc(C(=O)N3CCCCC3)nc3cc(OC)c(OC)cc23)cc1 | 766
COc1ccc(NC(=O)c2c(O)c3cccnc3n(-c3ccc(OC)cc3)c2=O)cc1 | 800
NC(=O)c1nc(-c2ccccc2F)n2c1CCCCC2 | 722
CN1C(=O)c2cccn2CC1CNC(=O)NCCc1ccccc1 (configuration not stated) | 661
CC1=C(c2ccc(F)cc2)S(=O)(=O)N=C1N1CCCN(C(=O)c2ccncc2)CC1 | 649

SMILES | RP-LC retention time [s]
Cc1ccc(CN2CCN(C3CCN(C(=O)Nc4ccc5c(c4)OCCO5)CC3)C(=O)C2=O)cc1 | 715
O=S(=O)(NCc1nc(-c2ccc(NS(=O)(=O)c3cccs3)cc2)no1)c1ccccc1 | 883
C=CCN1CC(=O)N2Cc3[nH]c4ccccc4c3C[C@H]2C1=O | 708
CCc1noc2nc(CCC(=O)NCCCN3CCCC(C)C3)nc(N3CCCCC3)c12 (configuration not stated) | 673
CN(C(=O)Cn1cnc2c(-c3ccc(Cl)cc3)csc2c1=O)c1ccccc1 | 1020
CCn1cc2c(n1)c(=O)n(Cc1ccc(F)cc1)c(=O)n2CC(=O)Nc1cc(F)ccc1F | 905
CC(C)(C)c1noc(-c2ccc(-n3cnc(C(=O)N4CCCCCC4)c3)nc2)n1 | 1030
O=C(Nc1c(-c2ccc(F)cc2)nc2ccccn12)c1cccc(C(F)(F)F)c1 | 748
COc1ccc(C(=O)N2CCN(c3cc(C(C)C)n4cnnc4n3)CC2)c(OC)c1 | 609
CCN(CCN(C)C)C(=O)c1c2c(nc3ccccc13)C(=O)N(C1CCCCC1)C2 | 601
CN(Cc1ccc(F)cc1Cl)C1CCc2nnc(C3CCOCC3)n2CC1 (configuration not stated) | 561
O=C(NCc1ccco1)C1CCCN(c2nccnc2Sc2ccccc2)C1 (configuration not stated) | 880
O=C(Nc1ccccc1)Oc1ccc[nH]c1=O | 650
Fc1cccc(-c2noc(Cc3nc(-c4ccccc4Cl)cs3)n2)c1 | 1260
O=S(=O)(c1ccc(-c2cc(C(F)(F)F)on2)o1)N1CCCCC1 | 1110
COc1ccc(C)cc1NC(=O)Nc1c(-c2ccc(C)cc2)nc2ccccn12 | 722
CCCCN(C)CCNC(=O)c1ccc(N2CCCC2=O)cc1 | 581
CCC(=O)c1ccc2c(c1)N(CCCN(C)C)c1ccccc1S2 | 772
CC(=O)c1cccc(NC(=O)Cn2c(=O)nc(NC3CCCC3)c3ccccc32)c1 | 682
Cc1nc(C)c(C(=O)N2CC(Oc3cccc(-c4nc(-c5ccccc5)no4)c3)C2)s1 | 1110
CCn1c(CNC(=O)C2CCC2)nc2c1CN(C(=O)Cc1ccc(Cl)cc1)CC2 | 652
